Legend:
B cell proliferation = B cell proliferation EC50 (Table 3); type: cell-based; settings: in vitro
PI3K β = target: T1, PI3K β (Homo sapiens, UniProt P42338); assay: In vitro IC50, PI3K β (Table 3); type: biochemical
T1 construct: purchased Upstate
Protocol: (§1) An exemplary system is PI 3-Kinase (human) HTRF™ Assay from Upstate. […] The total reaction volume is approximately 20 μl per well. […] The reaction is stopped by adding 5 μl of Stop Solution per well and then 5 μl of Detection Mix is added per well.

PI3K γ = target: T2, PI3K γ (Homo sapiens, UniProt P48736); assay: In vitro IC50, PI3K γ (Table 3); type: biochemical
T2 construct: purchased Sigma
T2 sequence (P48736 whole entry): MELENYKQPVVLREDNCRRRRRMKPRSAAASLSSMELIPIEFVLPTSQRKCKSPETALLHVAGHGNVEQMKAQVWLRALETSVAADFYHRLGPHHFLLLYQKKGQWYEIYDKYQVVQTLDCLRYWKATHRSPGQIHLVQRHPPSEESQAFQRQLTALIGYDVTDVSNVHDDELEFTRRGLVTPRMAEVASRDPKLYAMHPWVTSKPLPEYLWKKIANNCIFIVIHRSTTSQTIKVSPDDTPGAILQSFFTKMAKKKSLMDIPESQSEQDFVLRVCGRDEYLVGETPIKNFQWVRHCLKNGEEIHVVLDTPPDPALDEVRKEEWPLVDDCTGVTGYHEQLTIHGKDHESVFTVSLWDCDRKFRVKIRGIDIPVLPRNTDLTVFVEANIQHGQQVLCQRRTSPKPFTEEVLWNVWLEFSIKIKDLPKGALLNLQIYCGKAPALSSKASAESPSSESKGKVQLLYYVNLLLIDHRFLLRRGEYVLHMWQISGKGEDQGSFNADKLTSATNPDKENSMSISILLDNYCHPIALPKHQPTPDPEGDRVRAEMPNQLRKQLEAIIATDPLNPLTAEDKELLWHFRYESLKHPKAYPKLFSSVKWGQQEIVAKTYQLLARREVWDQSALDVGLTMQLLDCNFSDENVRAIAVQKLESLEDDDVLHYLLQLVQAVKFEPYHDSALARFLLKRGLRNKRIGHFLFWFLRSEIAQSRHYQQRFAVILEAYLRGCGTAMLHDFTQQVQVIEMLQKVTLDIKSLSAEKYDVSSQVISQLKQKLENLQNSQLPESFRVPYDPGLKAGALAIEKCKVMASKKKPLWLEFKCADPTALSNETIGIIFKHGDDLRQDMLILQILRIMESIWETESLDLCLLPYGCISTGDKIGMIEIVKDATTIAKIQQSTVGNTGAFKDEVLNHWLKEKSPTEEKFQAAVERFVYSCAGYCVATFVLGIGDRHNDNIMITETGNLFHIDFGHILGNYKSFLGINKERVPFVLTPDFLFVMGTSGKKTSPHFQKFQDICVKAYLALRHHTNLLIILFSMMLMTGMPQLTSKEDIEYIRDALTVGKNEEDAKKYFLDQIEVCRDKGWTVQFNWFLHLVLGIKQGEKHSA
Protocol: as §1

PI3K α = target: T3, PI3K α (Homo sapiens, UniProt P42336); assay: In vitro IC50, PI3K α (Table 3); type: biochemical
T3 construct: purchased Upstate
T3 sequence (P42336 whole entry): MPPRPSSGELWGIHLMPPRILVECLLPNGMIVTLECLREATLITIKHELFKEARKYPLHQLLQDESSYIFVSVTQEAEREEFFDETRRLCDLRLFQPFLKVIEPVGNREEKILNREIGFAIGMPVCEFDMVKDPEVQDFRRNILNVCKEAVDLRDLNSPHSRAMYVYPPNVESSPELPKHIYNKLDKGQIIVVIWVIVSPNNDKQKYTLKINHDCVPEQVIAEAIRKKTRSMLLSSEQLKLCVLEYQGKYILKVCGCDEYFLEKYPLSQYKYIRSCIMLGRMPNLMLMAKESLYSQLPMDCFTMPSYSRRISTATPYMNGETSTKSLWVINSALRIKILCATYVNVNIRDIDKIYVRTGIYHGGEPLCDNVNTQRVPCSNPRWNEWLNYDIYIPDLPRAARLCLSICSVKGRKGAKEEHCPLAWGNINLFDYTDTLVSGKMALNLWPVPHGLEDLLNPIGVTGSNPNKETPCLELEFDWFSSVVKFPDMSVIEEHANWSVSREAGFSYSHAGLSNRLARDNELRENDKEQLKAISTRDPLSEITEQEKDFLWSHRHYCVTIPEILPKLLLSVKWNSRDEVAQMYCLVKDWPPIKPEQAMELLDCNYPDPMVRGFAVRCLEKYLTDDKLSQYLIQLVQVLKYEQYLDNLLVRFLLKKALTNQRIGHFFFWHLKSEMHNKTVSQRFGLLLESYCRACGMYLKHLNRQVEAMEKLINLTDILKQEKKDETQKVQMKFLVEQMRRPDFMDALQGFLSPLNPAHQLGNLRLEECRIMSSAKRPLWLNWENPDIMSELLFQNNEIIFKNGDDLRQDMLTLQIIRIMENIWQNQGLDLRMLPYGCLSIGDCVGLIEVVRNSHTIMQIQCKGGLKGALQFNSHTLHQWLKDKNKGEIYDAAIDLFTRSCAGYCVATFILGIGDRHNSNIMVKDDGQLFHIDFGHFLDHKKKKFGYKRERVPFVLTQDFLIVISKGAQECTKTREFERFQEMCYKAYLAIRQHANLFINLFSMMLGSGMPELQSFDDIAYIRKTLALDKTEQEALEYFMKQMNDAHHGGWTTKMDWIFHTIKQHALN
T3 sequence (P27986 whole entry partner): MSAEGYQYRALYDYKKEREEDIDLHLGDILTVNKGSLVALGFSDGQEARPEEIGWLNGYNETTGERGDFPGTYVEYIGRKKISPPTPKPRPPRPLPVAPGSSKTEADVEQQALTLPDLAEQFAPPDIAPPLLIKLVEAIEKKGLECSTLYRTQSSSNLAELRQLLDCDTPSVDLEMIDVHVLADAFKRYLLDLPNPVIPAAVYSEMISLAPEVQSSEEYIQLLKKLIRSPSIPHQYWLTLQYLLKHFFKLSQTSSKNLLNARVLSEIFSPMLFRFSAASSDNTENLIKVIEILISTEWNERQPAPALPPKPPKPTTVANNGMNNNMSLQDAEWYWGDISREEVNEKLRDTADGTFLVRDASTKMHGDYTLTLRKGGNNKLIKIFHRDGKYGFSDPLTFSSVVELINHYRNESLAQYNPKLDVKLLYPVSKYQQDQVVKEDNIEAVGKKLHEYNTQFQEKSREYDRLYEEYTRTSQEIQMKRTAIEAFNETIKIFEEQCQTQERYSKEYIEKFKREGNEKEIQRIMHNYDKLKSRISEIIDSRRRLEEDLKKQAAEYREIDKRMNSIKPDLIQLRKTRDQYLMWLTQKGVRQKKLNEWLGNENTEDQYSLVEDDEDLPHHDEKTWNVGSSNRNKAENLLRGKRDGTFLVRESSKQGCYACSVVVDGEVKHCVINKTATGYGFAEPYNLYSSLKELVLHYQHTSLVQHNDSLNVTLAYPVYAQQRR
Protocol: as §1

NZBWF1/J mice = assay: Murine NZB/W F1 lupus model; type: in vivo, mouse; settings: 2 mg/kg PO QD, vs vehicle
Description: Female NZBWF1/J mice (n=60) that were 8 weeks old on arrival and weighed approximately 35-51 grams (mean 42 g) at enrollment (mouse age approx. 23 weeks) were obtained from The Jackson Laboratory, Bar Harbor, Me. (stock number 100008). Animals were identified by a distinct number of ink marks at the base of the tail delineating animal number. After enrollment, all cages were labeled with protocol number, group number, and animal numbers.
Mice were terminated at age 43 weeks (day 140).
All dose solutions were prepared to deliver in 10 ml/kg (0.3 ml/30 g mouse).
Body weights were measured and recorded prior to study initiation for randomization, on the first day of dosing prior to dosing, and weekly throughout the study. Body weights were also recorded at scheduled termination points and as needed if test subjects appeared to decrease in weight by visual inspection. The animals were observed daily for significant clinical signs, morbidity and mortality.
Urine from each animal was tested weekly (beginning at mouse age 23 weeks) for proteinuria using Clinitech Multistick test strips (Bayer).
At necropsy, animals were anesthetized with isoflorane and bled via cardiac puncture for serum (for clinical chemistry analysis) and plasma (for Anti-dsDNA ELISA and PK). Terminal urine was collected and assessed. Spleens and kidneys (paired) were collected, weighed, and placed in 10% NBF. Serum obtained at necropsy was sent to Antech Diagnostics for analysis. Terminal plasma samples were split with half being used for Anti-dsDNA ELISA and the other half being shipped to the sponsor.
Anti-dsDNA IgG analysis was performed on days 0, 49, 98, and 140 (mouse age 23, 30, 37, and 43 weeks). Anti-dsDNA IgG levels were determined using an Anti-dsDNA IgG ELISA Kit (Alpha Diagnostic, kit #5120, lot #90903K4) following manufacturer's instructions.
Blood samples for clinical chemistry evaluation were collected at termination via cardiac puncture from Isoflurane anesthetized animals into serum separator microtainer tubes. Serum was sent to Antech Diagnostics for analysis.
The following parameters were measured: Albumin (ALB), Albumin: Globulin ratio (A/G), Alkaline phosphatase (ALK), Alanine aminotransferase (ALT), Aspartate aminotransferase (AST), Calcium (CA), Magnesium (Mg), Phosphorous (P), Globulin (GLOB), Electrolytes (Sodium (Na), Potassium (K), Chloride (Cl)), Gamma glutamyltransferase (GGT), Total bilirubin (TBILI), Amylase (AMY), Lipase (LIP), Osmolality, Triglycerides (TRIG), Total cholesterol (CHOL), Urea nitrogen (BUN), Creatinine (CREAT), Glucose (GLU), Total protein (TP), and Creatinine kinase (CPK).
Histopathologic evaluation was performed on kidneys. Kidneys from all surviving animals were examined microscopically by a board certified veterinary pathologist and observations were entered into a computer-assisted data retrieval system. Kidney sections were stained with Masson's Trichrome, or Hematoxylin and Eosin. To maintain blinding of the analysis, slides were labeled with the animal number with no reference to treatment group.
Kidneys were scored according to the following system (developed by Chan O, Madaio M P, Shlomchik M J. The roles of B cells in MRL/lpr murine lupus. Annals New York Academy of Sciences, 1997; 815:75-82), modified to suit the lesion severity.
• 0=Normal. • 1=Focal or multifocal, minimal to mild, early proliferative. • 2=Multifocal mild to moderate or mild diffuse proliferative. • 3=Diffuse moderate proliferative with or without multifocal severe areas. • 4=Marked diffuse proliferative, with crescents/sclerosis, multifocal protein casts present. • 5=Severe diffuse proliferative, with crescents/sclerosis, diffuse protein casts present. […]

mouse EAE model = assay: Experimental Autoimmune Encephalomyelitis (EAE) model, semi-therapeutic, 28 day; type: in vivo; settings: FTY720 3 mg/kg QD p.o.
Protocol: EAE was induced in 60 mice using Hooke Kit™ MOG35-55/CFA Emulsion PTX (Hooke Laboratories, Lawrence Mass.), catalog number EK-0110, lot number 0104, per manufacturer's recommended protocol, except that pertussis toxin was diluted with phosphate buffered saline to achieve 1.4× and 1.3× solution (starting from the 1.5× solution in the kit). This was done to optimize disease severity for this particular study.
Mice were injected subcutaneously, at two sites in the back, with the emulsion component of the kit (containing MOG35-55). One site of injection was in the area of the upper back, approximately 1 cm caudal of the neck line. The second site was in the area of the lower back, approximately 2 cm cranial of the base of the tail. Injection volume was 0.1 mL at each site. Within 2 hours of the injection of emulsion, and then again 24 hours after the injection of emulsion, the pertussis toxin component of the kit was administered intraperitoneally. Volume of each injection was 0.1 mL.
Vehicle for Group 2 (FTY720) was water and 2% ethanol. Vehicle for all other groups was water, 0.5% CMC (low viscosity), and 0.05% Tween80. Mice were dosed at the same time every day, +/−1 hour. The last day of dosing was Day 27 after immunization.
Readouts were EAE scores and changes in body weight. Mice were scored daily from Day 7 to Day 28, and body weights were measured three times/week (Monday, Wednesday and Friday), starting on Day −1.
EAE was scored on scale 0 to 5: • 0 No obvious changes in motor functions of the mouse in comparison to non-immunized mice. When picked up by the tail, the tail has tension and is erect. Hind legs are usually spread apart. When the mouse is walking, there is no gait or head tilting. • 1 Limp tail. When the mouse is picked up by the tail, instead of being erect, the whole tail drapes over finger. • 2 Limp tail and weakness of hind legs. When mouse is picked up by tail, legs are not spread apart, but held closer together. When the mouse is observed walking, it has a clearly apparent wobbly walk. • 3 Limp tail and complete paralysis of hind legs (most common); or limp tail with paralysis of one front and one hind leg; or all of: severe head tilting, walking only along the edges of the cage, pushing against the cage wall, and spinning when picked up by the tail. • 4 Limp tail, complete hind leg and partial front leg paralysis. Mouse is minimally moving around the cage but appears alert and feeding Usually, euthanasia is recommended after the mouse scores level 4 for 2 days. When the mouse is euthanized because of severe paralysis, score of 5 is entered for that mouse for the rest of the experiment. • 5 Complete hind and complete front leg paralysis, no movement around the cage; or mouse is spontaneously rolling in the cage; or mouse is found dead due to paralysis.
At the end of the study 3 luxol fast blue (LFB) stained sections and 3 H&E sections, from lumbar, thoracic, and cervical spinal cord of all mice in Groups 1, 2, 3, and 6 and the 3 naïve mice were prepared and analyzed.
Inflammatory foci were counted in each H&E stained section. Each group of approximately 20 cells was counted as one focus. Foci larger than 20 cells were counted based on an estimate of how many foci of 20 cells were present.
The demyelination score represents an estimate of demyelinated area for each section as follows. For LFB stained slides, the demyelinated area was estimated based on intensity of blue staining of myelin. For H&E stained sections, demyelinated area was estimated by looking for interruption of normal structure—pallor and vacuolation consistent with edema and demyelination, and dilated axons. • 0—no demyelination (less than 5% demyelinated area) • 1—5 to 20% demyelinated area • 2—20 to 40% demyelinated area • 3—40 to 60% demyelinated area • 4—60 to 80% demyelinated area • 5—80 to 100% demyelinated area.
The number of apoptotic cells in each of the three H&E sections was determined.

T1 sequence (P42338 whole entry): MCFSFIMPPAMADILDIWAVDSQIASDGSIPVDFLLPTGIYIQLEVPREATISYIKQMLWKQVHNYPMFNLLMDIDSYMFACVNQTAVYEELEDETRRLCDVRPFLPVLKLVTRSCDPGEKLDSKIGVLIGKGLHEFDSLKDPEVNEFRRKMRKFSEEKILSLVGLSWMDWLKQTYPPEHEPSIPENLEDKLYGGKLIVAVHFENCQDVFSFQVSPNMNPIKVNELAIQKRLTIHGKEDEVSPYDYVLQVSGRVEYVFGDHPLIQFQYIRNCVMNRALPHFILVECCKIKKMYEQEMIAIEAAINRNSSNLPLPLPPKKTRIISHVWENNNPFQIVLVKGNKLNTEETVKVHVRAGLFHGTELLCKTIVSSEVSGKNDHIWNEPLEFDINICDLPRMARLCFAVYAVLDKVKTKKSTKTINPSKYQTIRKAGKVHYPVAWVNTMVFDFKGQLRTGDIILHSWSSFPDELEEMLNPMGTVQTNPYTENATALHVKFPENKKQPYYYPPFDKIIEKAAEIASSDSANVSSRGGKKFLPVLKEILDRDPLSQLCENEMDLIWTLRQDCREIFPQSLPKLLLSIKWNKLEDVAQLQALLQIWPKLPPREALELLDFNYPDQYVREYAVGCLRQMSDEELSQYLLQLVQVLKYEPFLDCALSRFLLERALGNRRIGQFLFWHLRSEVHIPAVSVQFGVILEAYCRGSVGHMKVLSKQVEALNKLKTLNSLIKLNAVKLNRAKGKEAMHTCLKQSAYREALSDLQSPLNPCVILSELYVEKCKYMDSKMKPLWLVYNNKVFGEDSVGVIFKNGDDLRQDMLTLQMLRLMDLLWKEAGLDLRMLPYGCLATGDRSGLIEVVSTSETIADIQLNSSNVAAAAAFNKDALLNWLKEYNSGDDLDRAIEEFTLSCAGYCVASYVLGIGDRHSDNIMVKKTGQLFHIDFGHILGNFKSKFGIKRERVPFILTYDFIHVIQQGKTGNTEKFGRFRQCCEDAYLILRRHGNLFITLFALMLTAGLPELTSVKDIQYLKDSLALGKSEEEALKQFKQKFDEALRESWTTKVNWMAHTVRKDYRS
T1 sequence (P27986 whole entry partner): as the sequence (P27986 whole entry partner) above

## Cc1ccccc1-n1c(Cn2nc(I)c3c(N)ncnc32)cc2cccc(C)c2c1=O [Compound 6]
B cell proliferation
  EC50: < 0.1 µM

## Cc1cccc2cc(Cn3nc(C#CCO)c4c(N)ncnc43)n(-c3ccccc3F)c(=O)c12 [Compound 7]
PI3K β
  IC50: < 1 µM
PI3K γ
  IC50: < 0.1 µM
B cell proliferation
  EC50: < 0.1 µM
PI3K α
  IC50: < 10 µM

## Cc1ccccc1-n1c(Cn2nc(-c3cc(O)cc(F)c3)c3c(N)ncnc32)cc2cccc(C)c2c1=O [Compound 8]
PI3K β
  IC50: > 10 µM
B cell proliferation
  EC50: < 1 µM

## C[C@@H]1C[C@H]2[C@@H]3CCC4=CC(=O)C=C[C@]4(C)[C@@]3(F)[C@@H](O)C[C@]2(C)[C@@]1(O)C(=O)CO [Dex, dexamethasone, reference compound]
NZBWF1/J mice; kidney histopathology
  Glomerulonephritis score reduction: 91%
NZBWF1/J mice
  Interstitial nephritis score reduction: 95%
  Kidney weight increase: 20%
  Perivascular inflammation score reduction: 100%
  Spleen weight reduction: 76%
  Summed histopathology scores reduction: 88%

## CCCCCCCCc1ccc(CCC(N)(CO)CO)cc1 [FTY720, reference compound]
Mouse EAE model
  MMS +/− SD: 1.65 +/− 1.23
  Median Day of Onset: 11.5 days
Mouse EAE model; Day 27 relative to Day −1
  End % body weight +/− SD: 110.0 +/− 7.4%
Mouse EAE model; Day 28
  End score +/− SD: 0.45 +/− 0.44
Mouse EAE model; per spinal cord section
  Inflammatory foci +/− SD: 0.3 +/− 0.4
Mouse EAE model; score per section
  Demyelination (LFB) +/− SD: 0.3 +/− 0.3

Source: patent US9527847B2, “Treatment of lupus, fibrotic conditions, and inflammatory myopathies and other disorders using PI3 kinase inhibitors” (INFINITY PHARMACEUTICALS, INC., priority 2012, dated 2016)
